{
  "source": "paper PMC5138836",
  "about": "“Antiproliferative activities of Amaryllidaceae alkaloids from Lycoris radiata targeting DNA topoisomerase I” (Scientific Reports, 2016)",
  "target": "T1, DNA topoisomerase I (Top I) (Escherichia coli, UniProt P06612)",
  "T1 construct": "gene topA",
  "T1 sequence (P06612 whole entry)": "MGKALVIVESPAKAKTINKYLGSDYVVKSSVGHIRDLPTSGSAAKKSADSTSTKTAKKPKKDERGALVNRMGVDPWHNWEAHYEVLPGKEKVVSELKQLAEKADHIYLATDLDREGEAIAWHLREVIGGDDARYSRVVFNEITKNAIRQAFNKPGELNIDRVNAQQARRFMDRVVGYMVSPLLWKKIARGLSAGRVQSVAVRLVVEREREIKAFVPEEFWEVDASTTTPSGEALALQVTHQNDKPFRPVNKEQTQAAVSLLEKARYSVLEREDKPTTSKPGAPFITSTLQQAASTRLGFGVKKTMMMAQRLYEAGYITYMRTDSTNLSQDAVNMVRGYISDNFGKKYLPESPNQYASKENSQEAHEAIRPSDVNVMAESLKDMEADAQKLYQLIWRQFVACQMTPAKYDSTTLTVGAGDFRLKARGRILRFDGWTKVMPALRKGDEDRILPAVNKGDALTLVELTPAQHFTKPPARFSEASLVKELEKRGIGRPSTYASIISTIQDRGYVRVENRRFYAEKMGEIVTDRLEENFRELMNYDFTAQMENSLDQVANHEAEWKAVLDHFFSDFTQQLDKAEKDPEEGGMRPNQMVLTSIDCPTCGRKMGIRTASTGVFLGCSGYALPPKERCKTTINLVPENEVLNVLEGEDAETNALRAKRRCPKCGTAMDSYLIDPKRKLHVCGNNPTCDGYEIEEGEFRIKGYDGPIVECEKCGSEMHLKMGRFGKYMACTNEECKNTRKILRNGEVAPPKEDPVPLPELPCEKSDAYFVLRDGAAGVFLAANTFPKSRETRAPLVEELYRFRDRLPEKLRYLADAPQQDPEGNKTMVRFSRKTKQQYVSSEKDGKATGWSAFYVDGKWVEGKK",
  "experiment": "in vitro Top I inhibition assay (absorbance, plate reader); also affinity ultrafiltration HPLC-MS, EF […]",
  "assay_type": "biochemical",
  "data": [
    {"smiles": "CN1CCC2=C[C@H](O)[C@H]3OC(=O)c4cc5c(cc4[C@H]3[C@@H]21)OCO5", "note": "[compound 5, hippeastrine]", "values": [
      {"measurement": "IC50", "result": 23, "unit": "µM"}
    ]}
  ]
}
